Source: patent publication US20120071475A1, “UREA DERIVATIVES HAVING PI3K-INHIBITING ACTIVITY” (SHIONOGI & CO., LTD., priority 2009, published 2012)

Columns and labels:
CYP3A4 = target: T1, CYP3A4 (Homo sapiens, UniProt P08684); assay: CYP3A4 fluorescence MBI test; format: in vitro ADME; details: difference in IC50 with 0 or 30 minutes pre-reaction; CYP3A4 expressed in E. coli, substrate 7-BFC
T1 construct: host or cells: E. coli
Description: The CYP3A4 fluorescence MBI test is a test to examine the enhancement of CYP3A4 inhibition of a compound by a metabolic reaction. The test was performed using as an index, a reaction to produce a metabolite 7-hydroxytrifluoromethylcoumarin (HFC) which emits fluorescence, in which CYP3A4 expressed in E. coli was used as an enzyme and 7-benzyloxytrifluoromethylcoumarin (7-BFC) is debenzylated by CYP3A4 enzyme.
The reaction conditions are as follows: substrate: 5.6 μmol/L 7-BFC; pre-reaction time; 0 or 30 minutes; reaction time: 15 minutes; reaction temperature: 25° C. (room temperature); content of CYP3A4 (an enzyme expressed in E. coli): […] at the time of a pre-reaction and […] (when diluted 10 times) at the time of a reaction; the concentrations of a test drug: 0.625, 1.25, 2.5, 5, 10, and 20 μmol/L (6 points).
In a 96-well plate, an enzyme solution and a test drug solution were added as a pre-reaction solution into K-Pi buffer solution (pH 7.4) in the aforementioned ratio. A portion thereof was transferred to another 96-well plate to be diluted ten times with a substrate and a K-Pi buffer solution. A coenzyme, NADPH, was then added to start a reaction, which is the index (this is without a pre-reaction). After reacting for a predetermined time, 4:1 of acetonitrile: 0.5 mol/L Tris (trishydroxyaminomethane) was added to quench the reaction. To the remaining pre-reaction solution, NADPH was added to start a pre-reaction (this is with a pre-reaction). After pre-reacting for a predetermined time, a portion thereof was transferred to another plate to be diluted ten times with a substrate and K-Pi buffer solution, and thereby the index reaction is started. After reacting for a predetermined time, 4:1 of acetonitrile:0.5 mol/L Tris (trishydroxyaminomethane) was added to quench the reaction. For each plate in which the index reaction was carried out, the fluorescence value of a metabolite 7-HFC was measured with a fluorescent plate reader (Ex=420 nm, Em=535 nm).
The case wherein only DMSO (a solvent which dissolved a drug) was added to a reaction system was defined as a control (100%). When a test drug solution was added, the remaining activity (%) at each concentration was calculated, and then IC50 was calculated with a concentration and an inhibition ratio by an inverse estimation using a logistic model. When the difference in IC50 value is 5 μmol/L or more, the compound is shown as (+). When 3 μmol/L or less, the compound is shown as (−).

PI3Kγ = PI3Kγ (Homo sapiens, UniProt P48736); assay: PI3Kγ inhibitory activity (PI3-kinase HTRF assay, inhibition ratio); format: biochemical; details: 0.5 h, compound at 10 μmol/L; read-out: PI3Kg Inhibition Ratio % (10 μM)
Description: For each compound synthesized in the above Examples, PI3Kγ inhibitory activity was measured.
The PI3Kγ inhibitory activity of a compound was evaluated using PI3-kinase HTRF™ assay (Millipore) according to the following procedure:
To each well of a testing plate, 5 μL of a compound solution containing 10% DMSO (40 μmol/L as the concentration of the compound), 5 μL of a substrate solution (40 μmol/L phosphatidylinositol (4,5)-bisphosphate, 20 mmol/L MgCl2, 10 mmol/L DTT), and 5 μL of an enzyme solution (80 μg/mL PI-3 kinase y, 10 mmol/L MgCl2, 5 mmol/L DTT) were added, and then allowed to stand for 10 minutes.
Then, 5 μL of a reaction solution (40 μmol/L ATP, 10 mmol/L MgCl2, 5 mmol/L DTT) was added thereto. After reacting for 30 minutes at room temperature, 5 μL of a solution containing EDTA and biotinylated phosphatidylinositol (3,4,5)-triphosphate was added to quench the reaction.
5 μL of a detection reagent containing a europium-labeled anti-GST antibody, the GST-tagged PH domain, and allophycocyanin-labeled streptavidin was added thereto. After 18 hours, HTRF (excitation wavelength: 330 nm, measured wavelengths: 620 nm and 665 nm) was measured.
HTRF ratio was defined as the value obtained by dividing the amount of fluorescence obtained at the measured wavelength 665 nm by the amount of fluorescence obtained at 620 nm. The HTRF ratio in the absence of a compound was defined as 100% activity and the HTRF ratio in the absence of PI-3 kinase y was defined as 0% activity to calculate an inhibition ratio, which was defined as the PI3Kγ inhibitory activity of a compound at 10 μmol/L.

[1] = Metabolic stability test (pooled human liver microsome); format: in vitro ADME; details: percentage of test compound remained after 30 minutes, pooled human liver microsome 0.5 mg protein/mL, 1 mmol/L NADPH, 37° C., compound 0.5 μM
Description: After a subject compound was reacted for a certain time using a pooled human liver microsome commercially available, a reacted sample and an unreacted sample are compared to calculate a survival ratio, and then the degree of metabolism in the liver was evaluated.
0.2 mL of a buffer solution (50 mmol/L of Tris-HCl in pH 7.4, 150 mmol/L of potassium chloride, and 10 mmol/L of magnesium chloride) containing a human liver microsome of 0.5 mg protein/mL was reacted in the presence of 1 mmol/L NADPH at 37° C. for 0 or 30 minutes (oxidative reaction). After reacting, 50 μL of the reaction solution was added to 100 μL of a solution of methanol/acetonitrile (1/1 (v/v)), mixed, and then centrifuged at 3000 rpm for 15 minutes. The test compound in the supernatant was quantitated with LC/MS/MS. The amount of the compound at a reaction time of 0 minute was defined as 100% and, based on that, the percentage of the test compound remained after reacting for 30 minutes was calculated.

T1 sequence (P08684 whole entry): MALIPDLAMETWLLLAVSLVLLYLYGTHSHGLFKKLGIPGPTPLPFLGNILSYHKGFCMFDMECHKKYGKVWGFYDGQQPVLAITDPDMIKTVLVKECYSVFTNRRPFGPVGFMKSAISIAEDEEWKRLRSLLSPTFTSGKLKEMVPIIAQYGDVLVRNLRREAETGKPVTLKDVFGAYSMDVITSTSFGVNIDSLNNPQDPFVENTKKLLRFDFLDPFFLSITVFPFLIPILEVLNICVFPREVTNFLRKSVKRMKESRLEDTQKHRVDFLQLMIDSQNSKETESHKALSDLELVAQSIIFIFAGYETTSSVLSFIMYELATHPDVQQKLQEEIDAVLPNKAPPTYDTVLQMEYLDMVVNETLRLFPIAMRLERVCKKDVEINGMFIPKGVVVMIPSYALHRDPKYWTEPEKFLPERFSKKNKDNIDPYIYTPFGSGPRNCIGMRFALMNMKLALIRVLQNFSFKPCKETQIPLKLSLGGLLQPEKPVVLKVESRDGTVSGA
Chain of PI3Kγ (P48736 whole entry, species assumed): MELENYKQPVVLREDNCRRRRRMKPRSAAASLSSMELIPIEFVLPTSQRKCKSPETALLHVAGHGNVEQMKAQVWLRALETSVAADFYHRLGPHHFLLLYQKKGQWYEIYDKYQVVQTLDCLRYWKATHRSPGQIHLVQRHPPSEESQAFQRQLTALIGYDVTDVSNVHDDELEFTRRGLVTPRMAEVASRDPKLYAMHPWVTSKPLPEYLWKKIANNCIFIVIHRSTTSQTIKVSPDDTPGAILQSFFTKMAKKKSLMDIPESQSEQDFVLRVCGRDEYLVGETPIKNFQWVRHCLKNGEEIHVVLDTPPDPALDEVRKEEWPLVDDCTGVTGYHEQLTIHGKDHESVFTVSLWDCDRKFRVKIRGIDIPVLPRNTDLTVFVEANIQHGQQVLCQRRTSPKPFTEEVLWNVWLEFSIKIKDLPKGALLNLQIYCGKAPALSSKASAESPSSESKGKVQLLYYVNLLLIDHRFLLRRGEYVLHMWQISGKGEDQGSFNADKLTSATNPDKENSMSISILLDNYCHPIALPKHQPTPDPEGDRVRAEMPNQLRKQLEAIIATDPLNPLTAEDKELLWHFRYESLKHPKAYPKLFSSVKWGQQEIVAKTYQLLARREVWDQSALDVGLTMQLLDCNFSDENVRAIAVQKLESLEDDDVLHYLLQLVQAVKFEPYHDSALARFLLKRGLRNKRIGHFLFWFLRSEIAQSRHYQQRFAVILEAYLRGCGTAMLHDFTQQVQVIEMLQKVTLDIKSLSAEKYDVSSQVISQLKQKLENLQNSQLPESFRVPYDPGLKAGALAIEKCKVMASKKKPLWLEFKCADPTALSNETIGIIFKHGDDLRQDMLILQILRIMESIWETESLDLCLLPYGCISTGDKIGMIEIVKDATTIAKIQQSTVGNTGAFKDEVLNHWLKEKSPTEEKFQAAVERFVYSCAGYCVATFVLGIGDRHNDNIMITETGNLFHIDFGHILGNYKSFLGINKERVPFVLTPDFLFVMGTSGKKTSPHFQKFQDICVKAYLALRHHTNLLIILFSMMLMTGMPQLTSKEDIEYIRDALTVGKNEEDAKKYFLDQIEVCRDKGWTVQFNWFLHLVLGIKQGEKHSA

Row | inhibition at 10 µM (PI3Kγ) [%] | hLMS_ox(at 0.5 μM) % [1] [%] | SMILES | MBI (CYP3A4)
1 | ≥ 95 | – | COc1cc(N2CCc3nc(NC(=O)Nc4ccccc4C(=O)NC4(C#N)CC4)sc3C2)nc(OC)n1 [Compound I-20] | (−) (When 3 μmol/L or less, the compound is shown as (−))
2 | ≥ 95 | – | COc1cc(N2CCc3nc(NC(=O)Nc4cccnc4C(=O)NC(C)(C)C)sc3C2)nc(OC)n1 [Compound I-22] | (−) (When 3 μmol/L or less, the compound is shown as (−))
3 | ≥ 95 | – | COc1cc(N2CCc3nc(NC(=O)Nc4cnccc4C(=O)NC(C)(C)C)sc3C2)nc(OC)n1 [Compound I-23] | (−) (When 3 μmol/L or less, the compound is shown as (−))
4 | ≥ 95 | – | COc1cc(N2CCc3nc(NC(=O)Nc4cccnc4C(=O)N(C)C(C)C)sc3C2)nc(OC)n1 [Compound I-24] | (−) (When 3 μmol/L or less, the compound is shown as (−))
5 | – | – | COc1cc(N2CCc3nc(NC(=O)Nc4ccccc4C(F)(F)F)sc3C2)nc(OC)n1 [Compound I-33] | (−) (When 3 μmol/L or less, the compound is shown as (−))
6 | – | – | COc1cc(N2CCc3nc(NC(=O)Nc4ccccc4OC(F)(F)F)sc3C2)nc(OC)n1 [Compound I-34] | (−) (When 3 μmol/L or less, the compound is shown as (−))
7 | ≥ 95 | 101 | COc1cc(N2CCc3nc(NC(=O)Nc4ccccc4C(N)=O)sc3C2)nc(OC)n1 [Compound I-35] | (−) (When 3 μmol/L or less, the compound is shown as (−))
8 | – | – | COc1cc(N2CCc3nc(NC(=O)Nc4ccccc4OCc4ccccc4)sc3C2)nc(OC)n1 [Compound I-39] | (−) (When 3 μmol/L or less, the compound is shown as (−))
9 | – | – | COc1cc(N2CCc3nc(NC(=O)Nc4ccccc4C(C)(C)C)sc3C2)nc(OC)n1 [Compound I-40] | (−) (When 3 μmol/L or less, the compound is shown as (−))
10 | – | – | COc1cncc(N2CCc3nc(NC(=O)Nc4ccccc4C(=O)NC(C)C)sc3C2)c1 [Compound I-49] | (−) (When 3 μmol/L or less, the compound is shown as (−))
11 | – | 95.5 | CNC(=O)c1ccccc1NC(=O)Nc1nc2c(s1)CN(c1cc(OC)nc(OC)n1)CC2 [Compound I-56] | (−) (When 3 μmol/L or less, the compound is shown as (−))
12 | – | – | COc1cc(N2CCc3nc(NC(=O)Nc4ccccc4C(=O)NCC(C)C)sc3C2)nc(OC)n1 [Compound I-58] | (−) (When 3 μmol/L or less, the compound is shown as (−))
13 | – | – | COc1cc(N2CCc3nc(NC(=O)Nc4ccccc4C(=O)NCCC(C)C)sc3C2)nc(OC)n1 [Compound I-59] | (−) (When 3 μmol/L or less, the compound is shown as (−))
14 | – | – | COc1cc(OC)nc(N2CCc3nc(NC(=O)Nc4ccccc4C(=O)NC(C)C)sc3C2)c1 [Compound I-62] | (−) (When 3 μmol/L or less, the compound is shown as (−))
15 | ≥ 95 | – | COc1cc(N2CCc3nc(NC(=O)Nc4ccccc4C(=O)CC(C)C)sc3C2)nc(OC)n1 [Compound I-65] | (−) (When 3 μmol/L or less, the compound is shown as (−))
16 | – | 83.3 | COc1cc(N2CCc3nc(NC(=O)Nc4cc(F)ccc4C(=O)NC(C)C)sc3C2)nc(OC)n1 [Compound I-74] | (−) (When 3 μmol/L or less, the compound is shown as (−))
17 | – | – | COc1cc(N2CCc3nc(NC(=O)Nc4cccc(F)c4C(=O)NC(C)C)sc3C2)nc(OC)n1 [Compound I-75] | (−) (When 3 μmol/L or less, the compound is shown as (−))
18 | – | – | COc1cncc(C2(F)CCc3nc(NC(=O)Nc4ccccc4C(=O)NC(C)C)sc3C2)c1 (stereo not drawn) [Compound I-79] | (−) (When 3 μmol/L or less, the compound is shown as (−))
19 | ≥ 95 | – | CC(C)NC(=O)c1ccccc1NC(=O)Nc1nc2c(s1)CN(c1ccnc(Cl)n1)CC2 [Compound I-98] | (−) (When 3 μmol/L or less, the compound is shown as (−))
20 | 83 | 90.5 | Cc1cc(N2CCc3nc(NC(=O)Nc4ccccc4C(=O)NC(C)C)sc3C2)nc(Cl)n1 [Compound I-163] | (−) (When 3 μmol/L or less, the compound is shown as (−))
21 | 89 | 104 | Cc1cc(N2CCc3nc(NC(=O)Nc4ccccc4C(=O)N[C@@H](C)CO)sc3C2)nc(Cl)n1 [Compound I-168] | (−) (When 3 μmol/L or less, the compound is shown as (−))
22 | 89 | 92.6 | Cc1cc(N2CCc3nc(NC(=O)Nc4ccccc4C(=O)N[C@@H](C)CO)sc3C2)nc(C#N)n1 [Compound I-180] | (−) (When 3 μmol/L or less, the compound is shown as (−))
23 | ≥ 95 | 87.6 | Cc1cc(N2CCc3nc(NC(=O)Nc4ccccc4C(=O)N[C@H](C)CO)sc3C2)nc(C#N)n1 [Compound I-185] | (−) (When 3 μmol/L or less, the compound is shown as (−))
24 | 91 | – | Cc1cc(N2CCc3nc(NC(=O)Nc4cn(C)nc4C(=O)NC(C)C)sc3C2)nc(C#N)n1 [Compound I-186] | (−) (When 3 μmol/L or less, the compound is shown as (−))
25 | ≥ 95 | – | CS(=O)(=O)c1cccc(N2CCc3nc(NC(=O)Nc4ccccc4C(=O)NCC#N)sc3C2)c1 [Compound I-200] | (−) (When 3 μmol/L or less, the compound is shown as (−))
